Here are results for 15 molecules from patent US20090156577A1, “7-AMINO ALKYLIDENYL-HETEROCYCLIC QUINOLONES AND NAPHTHYRIDONES” (priority 2004, published 2009).

This assay deals with pathogenic bacteria. In words: MIC by microdilution broth method (NCCLS M7-A4), in vitro antibacterial activity. It counts as cell-based. The method in brief: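 Broth microdilution per NCCLS M7-A4: two-fold serial dilutions in cation-adjusted Mueller-Hinton broth, inoculum about 5×10^4 CFU/well. Trays incubated 16–20 h at 35 °C. MIC read by comparing growth against no-compound growth controls.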
A general note: In broth dilution the organism is exposed to a series of concentrations in liquid medium.

The mark [1] stands for this setting: Staphylococcus aureus, Organism A: Staphylococcus aureus OC4172, read-out: MIC.
[2] abbreviates: Streptococcus pneumoniae, ATCC49619, Organism E: Streptococcus pneumoniae ATCC 49619, read-out: MIC.
[3] abbreviates: Streptococcus pneumoniae, Organism B: fluoroquinolone-resistant clinical isolate of Streptococcus pneumoniae (QRDR amino acid substitutions).
Where [4] appears, read: Streptococcus pneumoniae, Organism C: fluoroquinolone-resistant clinical isolate of Streptococcus pneumoniae (QRDR amino acid substitutions).
The mark [5] stands for this setting: Streptococcus pneumoniae, Organism D: fluoroquinolone-resistant clinical isolate of Streptococcus pneumoniae (QRDR amino acid substitutions).
The mark [6] stands for this setting: Organism A: Staphylococcus aureus OC4172.

≈ marks a conversion by molar mass, not a printed value. Where a name gives a salt, the structure may show the parent alone. Read-outs that look alike come from different tables or passages of the source.

The term MIC denotes the smallest concentration in the dilution series that meets the test's criterion for growth inhibition. Consider `C/C(CN)=C1/CCCN(c2cc3c(cc2F)c(=O)c(C(=O)O)cn3C2CC2)C1` [Compound 385, (E)-7-[3-(2-Amino-1-methyl-ethylidene)-piperidin-1-yl]-1-cyclopropyl-6-fluoro-4-oxo-1,4-dihydro-quinoline-3-carboxylic acid], for which the minimum inhibitory concentration (MIC) runs as follows: under setting [1], 1 µg/mL (≈ 2.59 µM); under setting [2], 8 µg/mL (≈ 20.8 µM); under setting [3], more than 16 µg/mL; under setting [4], more than 16 µg/mL; under setting [5], more than 16 µg/mL.

In the case of `NCC(Cl)=C1CN(c2nc3c(cc2F)c(=O)c(C(=O)O)cn3C2CC2)C1` [Compound 81, 7-[3-(2-Amino-1-chloro-ethylidene)-azetidin-1-yl}-1-cyclopropyl-6-fluoro-4-oxo-1,4-dihydro-[1,8]naphthyridine-3-carboxylic acid], the minimal inhibitory concentration (MIC) is, setting by setting: under setting [1], 0.06 µg/mL (≈ 0.158 µM); under setting [2], 0.25 µg/mL (≈ 0.66 µM); under setting [3], 1 µg/mL (≈ 2.64 µM); under setting [4], 2 µg/mL (≈ 5.28 µM); under setting [5], 2 µg/mL (≈ 5.28 µM).

Consider `COc1c(N2CCC(=C(Cl)CN)CC2)c(F)c(C)c2c(=O)c(C(=O)O)cn(C3CC3)c12` [Compound 455, 7-[4-(2-Amino-1-chloro-ethylidene)-piperidin-1-yl]-1-cyclopropyl-6-fluoro-8-methoxy-5-methyl-4-oxo-1,4-dihydro-quinoline-3-carboxylic Acid], for which the MIC is not above 0.015 µg/mL under setting [1]; 0.25 µg/mL (≈ 0.556 µM) under setting [2]; 0.12 µg/mL (≈ 0.267 µM) under setting [3]; 2 µg/mL (≈ 4.45 µM) under setting [4]; 1 µg/mL (≈ 2.22 µM) under setting [5].

On to `COc1c(N2CCC/C(=C(\F)CN)C2)c(F)cc2c(=O)c(C(=O)O)cn(C3CC3)c12` [Compound 303, (E)-7-[3-(2-Amino-1-fluoro-ethylidene)-piperidin-1-yl]-1-cyclopropyl-6-fluoro-8-methoxy-4-oxo-1,4-dihydro-quinoline-3-carboxylic Acid Trifluoroacetic Acid Salt], for which the minimum inhibitory concentration (MIC) is not above 0.015 µg/mL under setting [1]; 0.03 µg/mL under setting [2]; 0.25 µg/mL under setting [3]; 0.12 µg/mL under setting [4]; 0.25 µg/mL under setting [5].

As to `NCC(F)=C1CCN(c2cc3c(cc2F)c(=O)c(C(=O)O)cn3C2CC2)CC1` [Compound 5, 7-[4-(2-Amino-1-fluoro-ethylidene)-piperidin-1-yl]-l - cyclopropyl-6-fluoro-4-oxo-1,4-dihydro-quinoline-3-carboxylic acid trifluoroacetic acid salt], the MIC runs as follows: under setting [1], 0.03 µg/mL; under setting [4], 1 µg/mL.

For the molecule `NC/C(F)=C1\CCCN(c2cc3c(cc2F)c(=O)c(C(=O)O)cn3C2CC2)CC1` [Compound 501, (Z)-7-[4-(2-Amino-1-fluoro-ethylidene)-azepan-1-yl]-1-cyclopropyl-6-fluoro-4-oxo-1,4-dihydro-quinoline-3-carboxylic acid], the MIC under setting [1] is 0.25 µg/mL (≈ 0.62 µM), the minimal inhibitory concentration (MIC) under setting [2] amounted to 2 µg/mL (≈ 4.96 µM), it took 8 µg/mL (≈ 19.8 µM) to inhibit growth under setting [4] (MIC) and it took 16 µg/mL (≈ 39.7 µM) to inhibit growth under setting [5] (MIC).

For the molecule `NC/C(Cl)=C1\CCCN(c2cc3c(cc2F)c(=O)c(C(=O)O)cn3C2CC2)CC1` [Compound 386, (Z)-7-[4-(2-Amino-1-chloro-ethylidene)-azepan-1-yl]-1-cyclopropyl-6-fluoro-4-oxo-1,4-dihydro-quinoline-3-carboxylic acid], the MIC runs as follows: under setting [1], 0.25 µg/mL (≈ 0.595 µM); under setting [2], 2 µg/mL (≈ 4.76 µM); under setting [4], 8 µg/mL (≈ 19.1 µM); under setting [5], 16 µg/mL (≈ 38.1 µM).

For `CNCC(F)=C1CN(c2c(F)cc3c(=O)c(C(=O)O)cn(-c4nc(N)c(F)cc4F)c3c2Cl)C1` [Compound 418, 1-(6-Amino-3,5-difluoro-pyridin-2-yl)-8-chloro-6-fluoro-7-[3-(1-fluoro-2-methylamino-ethylidene)-azetidin-1-yl]-4-oxo-1,4-dihydro-quinoline-3-carboxylic acid], the minimum inhibitory concentration (MIC) under setting [1] was 0.06 µg/mL (≈ 0.121 µM); the MIC under setting [2] amounted to 1 µg/mL (≈ 2.01 µM); the MIC under setting [3] stood at 16 µg/mL (≈ 32.1 µM); the MIC under setting [4] is more than 16 µg/mL; the MIC under setting [5] worked out at 16 µg/mL (≈ 32.1 µM).

`CNCC(C)=C1CCN(c2nc3c(cc2F)c(=O)c(C(=O)O)cn3C2CC2)CC1` [Compound 79, 1-Cyclopropyl-6-fluoro-7-[4-(1-methyl-2-methylamino-ethylidene)-piperidin-1-yl]-4-oxo-1,4-dihydro-[1,8]naphthyridine-3-carboxylic acid]: the minimum inhibitory concentration (MIC) under setting [6] was 0.06 µg/mL (≈ 0.15 µM), the MIC under setting [2] was found to be 0.25 µg/mL (≈ 0.624 µM), inhibition of growth under setting [4] (MIC) required 2 µg/mL (≈ 4.99 µM) and it took 1 µg/mL (≈ 2.5 µM) to inhibit growth under setting [5] (MIC).

As to `CN(C)CC(F)=C1CCN(c2nc3c(cc2F)c(=O)c(C(=O)O)cn3C2CC2)CC1` [Compound 182, 1-Cyclopropyl-7-[4-(2-dimethylamino-1-fluoro-ethylidene)-piperidin-1-yl]-6-fluoro-4-oxo-1,4-dihydro-[1,8]naphthyridine-3-carboxylic acid], the MIC was 0.06 µg/mL (≈ 0.143 µM) under setting [1], 0.25 µg/mL (≈ 0.597 µM) under setting [2], 1 µg/mL (≈ 2.39 µM) under setting [4] and 2 µg/mL (≈ 4.78 µM) under setting [5].

As for `Nc1nc(-n2cc(C(=O)O)c(=O)c3cc(F)c(N4CCC/C(=C(\F)CO)C4)c(Cl)c32)c(F)cc1F` [Compound 415, (E)-1-(6-Amino-3,5-difluoro-pyridin-2-yl)-8-chloro-6-fluoro-7-[3-(1-fluoro-2-hydroxy-ethylidene)-piperidin-1-yl]-4-oxo-1,4-dihydro-quinoline-3-carboxylic acid], the MIC is, setting by setting: under setting [1], 0.12 µg/mL (≈ 0.234 µM); under setting [2], 4 µg/mL (≈ 7.8 µM); under setting [4], more than 16 µg/mL; under setting [5], more than 16 µg/mL.

For `NCC(Cl)=C1CN(c2c(F)cc3c(=O)c(C(=O)O)cn(C4CC4)c3c2OC(F)F)C1` [Compound 205, 7-[3-(2-Amino-1-chloro-ethylidene)-azetidin-1-yl]-1-cyclopropyl-8-difluoromethoxy-6-fluoro-4-oxo-1,4-dihydro-quinoline-3-carboxylic acid], the minimum inhibitory concentration (MIC) runs as follows: under setting [1], 0.25 µg/mL (≈ 0.563 µM); under setting [2], 0.5 µg/mL (≈ 1.13 µM); under setting [3], 2 µg/mL (≈ 4.51 µM); under setting [4], 8 µg/mL (≈ 18 µM); under setting [5], 4 µg/mL (≈ 9.01 µM).

Turning to `COc1c(N2CCC(=C(C)CN)CC2)c(F)cc2c(=O)c(C(=O)O)cn(C3CC3)c12` [Compound 70, 7-[4-(2-Amino-1-methyl-ethylidene)-piperidin-1-yl]-1-cyclopropyl-6-fluoro-8-methoxy-4-oxo-1,4-dihydro-quinoline-3-carboxylic acid], the MIC runs as follows: under setting [6], 0.03 µg/mL (≈ 0.0722 µM); (Organism C: fluoroquinolone-resistant clinical isolate of Streptococcus pneumoniae (QRDR amino acid substitutions)) 0.25 µg/mL (≈ 0.602 µM); (Organism E: Streptococcus pneumoniae ATCC 49619) 0.12 µg/mL (≈ 0.289 µM); under setting [5], 0.25 µg/mL (≈ 0.602 µM).

`CN(C)CC(Cl)=C1CCN(c2cc3c(cc2F)c(=O)c(C(=O)O)cn3C2CC2)CC1` [Compound 298, 7-[4-(1-Chloro-2-dimethylamino-ethylidene)-piperidin-1-yl]-1-cyclopropyl-6-fluoro-4-oxo-1,4-dihydro-quinoline-3-carboxylic Acid Trifluoroacetic Acid Salt]: the minimal inhibitory concentration (MIC) (Staphylococcus aureus, Organism A: Staphylococcus aureus OC4172) is 0.25 µg/mL; the MIC (Streptococcus pneumoniae, ATCC49619, Organism E: Streptococcus pneumoniae ATCC 49619) was 1 µg/mL; the MIC under setting [3] turned out to be 16 µg/mL; the MIC under setting [4] was determined as 16 µg/mL; inhibition of growth under setting [5] (MIC) required 8 µg/mL.

`CC(CO)=C1CCN(c2c(F)cc3c(=O)c(C(=O)O)cn4c3c2OCC4C)CC1` (centres unmarked) [Compound 211, 8-Fluoro-9-[4-(2-hydroxy-1-methyl-ethylidene)-piperidin-1-yl]-3-methyl-6-oxo-2,3-dihydro-6H-1-oxa-3a-aza-phenalene-5-carboxylic acid]: the MIC under setting [1] is 0.03 µg/mL (≈ 0.0745 µM), the minimal inhibitory concentration (MIC) under setting [2] turned out to be 0.5 µg/mL (≈ 1.24 µM), the MIC under setting [3] came to 4 µg/mL (≈ 9.94 µM) and the MIC under setting [4] amounted to 4 µg/mL (≈ 9.94 µM).
